Experimental data published in US6989162B2, “Hepatoprotective agent of plant origin and a process thereof” (Council of Scientific & Industrial Research, priority 2003, dated 2006).
“And” between values parts separate entries of the source, which are not always exact repeats. Equal entries are not always repeated.

Tests used:
isolated rat colon = test: Histamine, 5-HT and Acetylcholine induced contraction on the isolated rat colon
[1] = Acteoside only (per-se), serum and hepatic parameters without toxin; format: in vivo, Rodents; settings: 5 mg/kg, mean ± SE, six animals
[2] = tested on: CCl4 induced hepatic injury; test: Hepatoprotective potential against CCl4 induced hepatic injury in rodents (prophylactic); format: in vivo, Rodents (Albino rats, Wistar; Albino mice, Swiss); settings: for % protection, GSH / % protection, LP / GSH (glutathione) / LP (lipid peroxidation): hepatic; for GSH (glutathione) / LP (lipid peroxidation) / ALP / Albumin / Bilirubin / GOT / GPT / TG: mean ± SE, six animals; for % protection, ALP / % protection, Albumin / % protection, Bilirubin / % protection, GOT / % protection, GPT / % protection, TG / ALP / Albumin / Bilirubin / GOT / GPT / TG: serum
From the text: The compound has been bioevaluated for hepatoprotective/antihepatotoxic activity by using a comprehensive study design annexed herewith as Annexure-2. The parameters studied during the bioevaluation to establish the bioefficacy and optimum dose were preferred using the kits (Clonital, Italy and Accurex Biomedical Pvt. Ltd Thane). The list of the parameters is given in Annexure-2 appended herewith. The dose response graphs with respect to different parameters in comparison with the standard drug with silymarin and glycyrrhizin are given in Annexure-3 appended herewith.
Hepatoprotective activity (H) was calculated by the following equation: H=[1−(TC−V/VC−V)]×100
Where TC, VC, and V are drug+toxin, vehicle+toxin and vehicle treated groups of animals respectively.

[3] = Effect on BP and respiration, I.V. in rat; format: in vivo; settings: 30 μg, 100 μg, 300 μg and 1 mg I.V. in rat

C[C@@H]1O[C@@H](O[C@@H]2[C@@H](O)[C@H](OCCc3ccc(O)c(O)c3)O[C@H](CO)[C@H]2OC(=O)/C=C/c2ccc(O)c(O)c2)[C@H](O)[C@H](O)[C@H]1O [Acteoside, β-(3′,4′-dihydroxyphenyl) ethyl —O-α-L-rhamnopyranosyl (1→3)-β-D-(4-O-caffeoyl)-glucopyranoside]
effect on 5-HT induced contraction (isolated rat colon): O: There is no change in the base line against the Histamine, 5-HT and Acetylcholine induced contraction on the isolated rat colon. | effect on Acetylcholine induced contraction (isolated rat colon): O: There is no change in the base line against the Histamine, 5-HT and Acetylcholine induced contraction on the isolated rat colon. | effect on Histamine induced contraction (isolated rat colon): O: There is no change in the base line against the Histamine, 5-HT and Acetylcholine induced contraction on the isolated rat colon. | GSH (glutathione) ([1]; no CCl4, hepatic): 8.33 ± 0.33 μ mole GSH/g liver | LP (lipid peroxidation) ([1]; no CCl4, hepatic): 30.52 ± 1.38 n mole MDA/g liver | ALP ([1]; no CCl4, serum): 31.87 ± 2.15 μ mole of p-nitrophenol formed/min/L | Albumin ([1]; no CCl4, serum): 4.66 ± 0.18 g % | Bilirubin ([1]; no CCl4, serum): 0.27 ± 0.02 mg % | GOT ([1]; no CCl4, serum): 94.71 ± 5.29 Units (μ mole pyruvate/min/L) | GPT ([1]; no CCl4, serum): 98.91 ± 5.30 Units (μ mole pyruvate/min/L) | TG ([1]; no CCl4, serum): 31.10 ± 2.39 mg % | % protection, GSH ([2]; 0.625 mg/kg p.o. + CCl4): (27.86) % | % protection, LP ([2]; 0.625 mg/kg p.o. + CCl4): (43.53) % | GSH (glutathione) ([2]; 0.625 mg/kg p.o. + CCl4): 4.66 ± 0.28 μ mole GSH/g liver | LP (lipid peroxidation) ([2]; 0.625 mg/kg p.o. + CCl4): 61.08 ± 3.39 n mole MDA/g liver | % protection, ALP ([2]; 0.625 mg/kg p.o. + CCl4): (21.48) % | % protection, Albumin ([2]; 0.625 mg/kg p.o. + CCl4): (21.43) % | % protection, Bilirubin ([2]; 0.625 mg/kg p.o. + CCl4): (12.24) % | % protection, GOT ([2]; 0.625 mg/kg p.o. + CCl4): (36.64) % | % protection, GPT ([2]; 0.625 mg/kg p.o. + CCl4): (39.44) % | % protection, TG ([2]; 0.625 mg/kg p.o. + CCl4): (17.63) % | ALP ([2]; 0.625 mg/kg p.o. + CCl4): 66.80 ± 3.53 μ mole of p-nitrophenol formed/min/L | Albumin ([2]; 0.625 mg/kg p.o. + CCl4): 3.06 ± 0.07 g % | Bilirubin ([2]; 0.625 mg/kg p.o. + CCl4): 0.70 ± 0.03 mg % | GOT ([2]; 0.625 mg/kg p.o. + CCl4): 673.82 ± 56.28 Units (μ mole pyruvate/min/L) | GPT ([2]; 0.625 mg/kg p.o. + CCl4): 852.27 ± 47.93 Units (μ mole pyruvate/min/L) | TG ([2]; 0.625 mg/kg p.o. + CCl4): 80.15 ± 3.53 mg % | overall percent protection with reference to all the parameters studied ([2]; 1.25 mg upto 5 mg/kg, CCl4): 40-85% and 40-80% | % protection, GSH ([2]; 1.25 mg/kg p.o. + CCl4): (52.96) % | % protection, LP ([2]; 1.25 mg/kg p.o. + CCl4): (59.38) % | GSH (glutathione) ([2]; 1.25 mg/kg p.o. + CCl4): 5.93 ± 0.32 μ mole GSH/g liver | LP (lipid peroxidation) ([2]; 1.25 mg/kg p.o. + CCl4): 52.61 ± 2.25 n mole MDA/g liver | % protection, ALP ([2]; 1.25 mg/kg p.o. + CCl4): (38.72) % | % protection, Albumin ([2]; 1.25 mg/kg p.o. + CCl4): (35.00) % | % protection, Bilirubin ([2]; 1.25 mg/kg p.o. + CCl4): (34.69) % | % protection, GOT ([2]; 1.25 mg/kg p.o. + CCl4): (55.43) % | % protection, GPT ([2]; 1.25 mg/kg p.o. + CCl4): (51.01) % | % protection, TG ([2]; 1.25 mg/kg p.o. + CCl4): (27.13) % | ALP ([2]; 1.25 mg/kg p.o. + CCl4): 59.10 ± 3.09 μ mole of p-nitrophenol formed/min/L | Albumin ([2]; 1.25 mg/kg p.o. + CCl4): 3.25 ± 0.14 g % | Bilirubin ([2]; 1.25 mg/kg p.o. + CCl4): 0.59 ± 0.03 mg % | GOT ([2]; 1.25 mg/kg p.o. + CCl4): 503.42 ± 48.95 Units (μ mole pyruvate/min/L) | GPT ([2]; 1.25 mg/kg p.o. + CCl4): 787.56 ± 57.49 Units (μ mole pyruvate/min/L) | TG ([2]; 1.25 mg/kg p.o. + CCl4): 74.38 ± 3.78 mg % | % protection, GSH ([2]; 2.5 mg/kg p.o. + CCl4): (68.57) % | % protection, LP ([2]; 2.5 mg/kg p.o. + CCl4): (72.76) % | GSH (glutathione) ([2]; 2.5 mg/kg p.o. + CCl4): 6.72 ± 0.28 μ mole GSH/g liver | LP (lipid peroxidation) ([2]; 2.5 mg/kg p.o. + CCl4): 45.46 ± 2.79 n mole MDA/g liver | % protection, ALP ([2]; 2.5 mg/kg p.o. + CCl4): (56.40) % | % protection, Albumin ([2]; 2.5 mg/kg p.o. + CCl4): (56.43) % | % protection, Bilirubin ([2]; 2.5 mg/kg p.o. + CCl4): (53.06) % | % protection, GOT ([2]; 2.5 mg/kg p.o. + CCl4): (58.92) % | % protection, GPT ([2]; 2.5 mg/kg p.o. + CCl4): (59.79) % | % protection, TG ([2]; 2.5 mg/kg p.o. + CCl4): (51.06) % | ALP ([2]; 2.5 mg/kg p.o. + CCl4): 51.20 ± 1.42 μ mole of p-nitrophenol formed/min/L | Albumin ([2]; 2.5 mg/kg p.o. + CCl4): 3.55 ± 0.22 g % | Bilirubin ([2]; 2.5 mg/kg p.o. + CCl4): 0.50 ± 0.03 mg % | GOT ([2]; 2.5 mg/kg p.o. + CCl4): 471.81 ± 26.40 Units (μ mole pyruvate/min/L) | GPT ([2]; 2.5 mg/kg p.o. + CCl4): 662.62 ± 39.80 Units (μ mole pyruvate/min/L) | TG ([2]; 2.5 mg/kg p.o. + CCl4): 59.85 ± 1.88 mg % | % protection, GSH ([2]; 5.0 mg/kg p.o. + CCl4): (74.50) % | % protection, LP ([2]; 5.0 mg/kg p.o. + CCl4): (75.07) % | GSH (glutathione) ([2]; 5.0 mg/kg p.o. + CCl4): 7.02 ± 0.46 μ mole GSH/g liver | LP (lipid peroxidation) ([2]; 5.0 mg/kg p.o. + CCl4): 44.22 ± 1.66 n mole MDA/g liver | % protection, ALP ([2]; 5.0 mg/kg p.o. + CCl4): (67.21) % | % protection, Albumin ([2]; 5.0 mg/kg p.o. + CCl4): (82.14) % | % protection, Bilirubin ([2]; 5.0 mg/kg p.o. + CCl4): (69.38) % | % protection, GOT ([2]; 5.0 mg/kg p.o. + CCl4): (70.49) % | % protection, GPT ([2]; 5.0 mg/kg p.o. + CCl4): (66.08) % | % protection, TG ([2]; 5.0 mg/kg p.o. + CCl4): (68.42) % | ALP ([2]; 5.0 mg/kg p.o. + CCl4): 46.37 ± 1.89 μ mole of p-nitrophenol formed/min/L | Albumin ([2]; 5.0 mg/kg p.o. + CCl4): 3.91 ± 0.12 g % | Bilirubin ([2]; 5.0 mg/kg p.o. + CCl4): 0.42 ± 0.02 mg % | GOT ([2]; 5.0 mg/kg p.o. + CCl4): 366.89 ± 26.97 Units (μ mole pyruvate/min/L) | GPT ([2]; 5.0 mg/kg p.o. + CCl4): 573.10 ± 28.25 Units (μ mole pyruvate/min/L) | TG ([2]; 5.0 mg/kg p.o. + CCl4): 49.31 ± 1.47 mg % | overall protection compared with silymarin ([2]; silymarin at 10-20 times the dosage of acteoside): better than that rendered by silymarin | effect on BP [3]: O: There is no effect on BP and Respiration in the doses of 30 μg, 100 μg, 300 μg and 1 mg I.V. in rat as there is no change in base line. | effect on Respiration [3]: O: There is no effect on BP and Respiration in the doses of 30 μg, 100 μg, 300 μg and 1 mg I.V. in rat as there is no change in base line.

CC1(C)[C@@H](O[C@H]2O[C@H](C(=O)O)[C@@H](O)[C@H](O)[C@H]2O[C@@H]2O[C@H](C(=O)O)[C@@H](O)[C@H](O)[C@H]2O)CC[C@]2(C)[C@H]3C(=O)C=C4[C@@H]5C[C@@](C)(C(=O)O)CC[C@]5(C)CC[C@@]4(C)[C@]3(C)CC[C@@H]12 [Glycyrrhizin, reference compound]
% protection, GSH ([2]; 100 mg/kg p.o. + CCl4): (53.55) % | % protection, LP ([2]; 100 mg/kg p.o. + CCl4): (56.08) % | GSH (glutathione) ([2]; 100 mg/kg p.o. + CCl4): 5.96 ± 0.26 μ mole GSH/g liver | LP (lipid peroxidation) ([2]; 100 mg/kg p.o. + CCl4): 54.37 ± 4.82 n mole MDA/g liver | % protection, ALP ([2]; 100 mg/kg p.o. + CCl4): (46.48) % | % protection, Albumin ([2]; 100 mg/kg p.o. + CCl4): (38.57) % | % protection, Bilirubin ([2]; 100 mg/kg p.o. + CCl4): (42.85) % | % protection, GOT ([2]; 100 mg/kg p.o. + CCl4): (56.44) % | % protection, GPT ([2]; 100 mg/kg p.o. + CCl4): (53.87) % | % protection, TG ([2]; 100 mg/kg p.o. + CCl4): (42.07) % | ALP ([2]; 100 mg/kg p.o. + CCl4): 55.63 ± 3.52 μ mole of p-nitrophenol formed/min/L | Albumin ([2]; 100 mg/kg p.o. + CCl4): 3.30 ± 0.12 g % | Bilirubin ([2]; 100 mg/kg p.o. + CCl4): 0.55 ± 0.04 mg % | GOT ([2]; 100 mg/kg p.o. + CCl4): 494.27 ± 36.28 Units (μ mole pyruvate/min/L) | GPT ([2]; 100 mg/kg p.o. + CCl4): 746.87 ± 49.77 Units (μ mole pyruvate/min/L) | TG ([2]; 100 mg/kg p.o. + CCl4): 65.31 ± 3.69 mg %
